Measured values from PubChem BioAssay AID602211 (Sanford-Burnham Center for Chemical Genomics, 2012).
pIC50: −log10 of the molar value. Active and inactive are the calls of the source.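 Rule for the calls: active = mean IC50 at or below 10 µM; inactive = the rest.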

Test system: H9c2 cardiomyocytes, H2O2 protection, ATPLite viability, 2 h
Experiment: H2O2-induced H9c2 cell death suppression – ATPLite luminescence, set 2, dose response (AID 602211);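 note: potency is for protection so actives keep ATP signal up against peroxide killing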

| Compound | pIC50 | IC50 |
| --- | --- | --- |
| COc1ccc2[nH]c(=O)c(CN(CC3CCCO3)S(=O)(=O)c3ccccc3F)cc2c1 (centres undefined) | 5.34 |  |
| Fc1ccc(CSc2ccc3nnc(-c4cccnc4)n3n2)cc1 | 5.21 |  |
| O=C(COc1cccc(NC(=O)c2cccc([N+](=O)[O-])c2)c1)c1ccc(F)cc1 | 5.03 |  |
| Cc1cc(C)c(S(=O)(=O)N2CCN(C(=O)c3cc(=O)[nH]c4ccccc34)CC2)c(C)c1 | 5.53 |  |
| COc1ccc(-c2cc3nc(-c4ccccc4)cc(N4CCN(C(=O)c5ccoc5)CC4)n3n2)cc1 | 5.31 |  |
| COc1ccc(-c2cc(-c3nnc(COC(=O)c4ccncc4)o3)c3ccccc3n2)cc1OC | 5.23 |  |
| CC(C)(C)OC(=O)N1CCC(NC(=O)c2nc[nH]c2C(=O)NCC(=O)OCc2ccccc2)CC1 | 5.97 |  |
| COCCN1Cc2cccc(C(=O)Nc3cccc(-c4nc5ccccc5[nH]4)c3)c2C1=O | 5.41 |  |
| COc1cccc(-c2cnc3c(NC=O)cc(-c4cc(OC)c(OC)c(OC)c4)cn23)c1 | 5.44 |  |
| COc1cc(C(=O)N/N=C/c2ccc(OC(=O)c3ccccc3)c(OC)c2)ccc1O | 5.18 |  |
| COc1cc(C(=O)Nc2cc3c(cc2N2CCCCC2)n(C)c(=O)n3C)cc(OC)c1OC |  | 11.2 µM (inactive) |
| Cc1nn2c(-c3cccc(NC(=O)c4ccco4)c3)nnc2c2ccccc12 | 5.78 |  |
| CC(=O)c1ccc(-c2ccc(C(=O)Nc3nc(-c4ccccn4)cs3)o2)cc1 | 5.80 |  |
| Cc1ccc(C(=O)Nc2cccc(C(F)(F)F)c2)cc1NC(=O)c1csc(-c2ccncc2)n1 | 5.26 |  |
| CCOc1ccc2ccccc2c1C(=O)N[C@@H]1C(=O)N2[C@@H]1SC(C)(C)[C@@H]2C(=O)O |  | 24.4 µM (inactive) |
| CCn1c(O)c(/C=N/N=C2CCCCC2)c2cc(C3=NNC(=O)CC3)ccc21 | 5.00 |  |
| COc1cc(NC(=O)c2ccco2)c(C(=O)OCC(=O)c2c[nH]c3ccccc23)cc1OC |  | > 79 µM (inactive) |
| Cc1c(OCC(=O)NCCN2CCOCC2)ccc2c1oc(=O)c1ccccc12 | 5.27 |  |
| CCN(CC)c1ccc(C2C(C(=O)OC(C)C)C(=O)CC(C)(O)C2C(=O)OC(C)C)cc1 (centres undefined) | 5.10 |  |
| CCOC(=O)c1c2c3c(cccc3n(C)c1=O)C(=O)c1ccccc1-2 |  | 10.1 µM (inactive) |
| N#C/C(=C\c1cn(-c2ccccc2)nc1-c1cccnc1)c1nnc2n1CCCCC2 |  | 13.7 µM (inactive) |
| Nc1c(C(=O)N/N=C/c2cccnc2)oc2nc(-c3ccccc3)cc(-c3ccco3)c12 | 5.54 |  |
| COc1cccc(/C=N/NC(=O)c2nc(-c3ccccc3)cc(-c3ccccc3)n2)c1 | 5.79 |  |
| CC(C)(C)NC(=O)COC(=O)c1c2c(nc3ccccc13)CCC2 |  | 14.6 µM (inactive) |

| Compound | pIC50 | IC50 |
| --- | --- | --- |
| COc1ccc(Nc2nc(C(=O)N3CCc4cc(OC)c(OC)cc4C3)cs2)cc1 | 5.37 |  |
| O=C(Nc1nc(-c2ccccn2)cs1)c1ccc(-c2ccccc2F)o1 | 5.52 |  |
| CCOC(=O)c1nc(Nc2ccc(C(=O)OC)cc2)c2ccccc2n1 | 5.16 |  |
| CC(=O)Nc1ccc(C(=O)N/N=C/c2ccccc2OC(=O)c2ccc(Cl)cc2)cc1 |  | 13.6 µM (inactive) |
| CCOC(=O)c1cnc(Nc2nc3ccccc3o2)nc1CSc1nnc(C)s1 |  | 12.8 µM (inactive) |
| COc1ccc(OCC(O)Cn2c(Nc3cccc(C)c3)nc3c2c(=O)n(C)c(=O)n3C)cc1 (centres undefined) |  | 12.9 µM (inactive) |
| CCc1nnc(NC(=O)CCC(=O)N2CCN(C3c4ccccc4-c4ccccc43)CC2)s1 |  | 12.9 µM (inactive) |
| COc1cc(NC(=O)c2ccc(-c3cn[nH]c3)c3ccoc23)cc(OC)c1OC | 5.49 |  |
| COc1ccccc1OCC(=O)Nc1cccc(-c2nnc(-c3ccco3)o2)c1 |  | > 79 µM (inactive) |
| CC1CN(c2nn3c(=O)c4ccccc4nc3c3ccccc23)CC(C)O1 (centres undefined) |  | 32.5 µM (inactive) |
| CCOC(=O)c1ccc(-c2ccc3ncnc(NCc4csc(C)n4)c3c2)o1 |  | > 79 µM (inactive) |
| COc1cc(-c2cnc3c(NC=O)cc(-c4cccnc4)cn23)cc(OC)c1OC |  | 24.6 µM (inactive) |
| COc1cccc(C(=O)CSc2nnc(-c3cc(OC)c(OC)c(OC)c3)o2)c1 |  | > 79 µM (inactive) |
| Cc1ccc(C=NNc2nc3c([nH]2)c(=O)n(C)c(=O)n3C)cc1 | 5.41 |  |
| CCOc1ccc(CCNC(=O)c2cc3c(C)nccc3[nH]c2=O)cc1OCC |  | 42.9 µM (inactive) |
| COc1ccc(-c2cc(-c3ccc(O)cc3)nc(N)c2C#N)cc1OC |  | > 79 µM (inactive) |
| CCOc1ccc(-n2cc(-c3ccccc3)c3c(N4CCOCC4)ncnc32)cc1 | 5.18 |  |
| CC(=O)c1cccc(Nc2nc3ccccc3n3cnnc23)c1 | 5.41 |  |
| CC(C)(C)OC(=O)CNC(=O)c1[nH]cnc1C(=O)Nc1ccc(CNC(=O)OC(C)(C)C)cc1 | 5.67 |  |
| CCN(C[C@H]1N[C@@](C)(C(=O)OC)[C@H]2C(=O)N(Cc3ccccc3)C(=O)[C@@H]12)C(=O)c1ccc(C(C)(C)C)cc1 | 5.20 |  |
| C=CC[C@@H](CC(=O)N[C@H](CO)Cc1ccccc1)C(=O)N[C@@H](COC(=O)[C@@H](CC=C)CC(=O)OC(C)(C)C)Cc1ccccc1 |  | 12.3 µM (inactive) |
| O=C(Nc1ccccc1)c1nc[nH]c1C(=O)NCCNC(=O)c1[nH]cnc1C(=O)Nc1ccccc1 | 6.18 |  |
| O=C(CNC(=O)c1nc[nH]c1C(=O)NCc1ccccc1)OCc1ccccc1 |  | > 79 µM (inactive) |
| COC(=O)c1cc2c(C)c(C)c3ccccn3c-2c1C(=O)OC |  | > 79 µM (inactive) |

| Compound | pIC50 | IC50 |
| --- | --- | --- |
| O=C(CSc1ccc2nnc(-c3ccc(F)cc3)n2n1)N1CCCc2ccccc21 | 5.92 |  |
| COc1ccc2oc(C(=O)Nc3ccc(N4CCOCC4)cc3)c(C)c2c1 |  | > 79 µM (inactive) |
| COc1ccc(-n2c(/C=C/c3ccc(O)c(OC)c3)nc3ccccc3c2=O)cc1 | 5.80 |  |
| CC(C)(C)NC(=O)c1cc(NC(=O)c2cccs2)cc(NC(=O)c2cccs2)c1 | 5.08 |  |
| CC(C)C(=O)N1CCN(c2ccc(NC(=O)COc3ccccc3[N+](=O)[O-])cc2)CC1 | 5.97 |  |
| Cc1ccc(NC(=O)c2nc[nH]c2C(=O)NCCCCCCNC(=O)c2[nH]cnc2C(=O)Nc2ccc(C)cc2)cc1 | 5.41 |  |
| COc1ccccc1N1CCN(C(=O)c2ccc3nc(-c4ccco4)c(-c4ccco4)nc3c2)CC1 | 5.11 |  |
| CCCN1C(=O)c2cc(C(=O)Nc3cccc(C(C)=O)c3)ccc2C1Nc1cccc(C(C)=O)c1 (centres undefined) |  | > 79 µM (inactive) |
| COc1ccc(NC(=O)c2cc(-c3ccccn3)nc3ccccc23)cc1S(=O)(=O)N(C)C | 5.61 |  |
| COc1ccccc1CN(C(=O)CNC(=O)c1ccco1)C(C(=O)NCC1CCCO1)c1ccccc1 (centres undefined) | 5.01 |  |
| COc1ccc(N/C=C(\C#N)c2nc3ccccc3n2C)c(OC)c1 | 5.43 |  |
| CC(C)(C)C(=O)Nc1cccc(-c2nnc(-c3cccc(NC(=O)C(C)(C)C)c3)o2)c1 | 5.32 |  |
| CCN(C[C@H]1N[C@@](Cc2ccccc2)(C(=O)OC)[C@H]2C(=O)N(C)C(=O)[C@@H]12)S(=O)(=O)c1ccc(OC)cc1 |  | 21.1 µM (inactive) |
| COc1ccc(CNn2c(-c3cccs3)nc3ccccc3c2=O)cc1OC | 5.14 |  |
| COc1ccc(CCn2c(=O)c3cccnc3n(Cc3ccc([N+](=O)[O-])cc3)c2=O)cc1OC | 5.91 |  |
| Cc1cccc(NC(=O)c2nc[nH]c2C(=O)NCCCCNC(=O)c2[nH]cnc2C(=O)Nc2cccc(C)c2)c1 | 5.86 |  |
| OC1CCN(c2c3c(nc4cc(-c5cccc(F)c5)nn24)CCCC3)CC1 | 5.22 |  |
| CCOC(=O)c1c(C)[nH]c(C)c1C(=O)COc1ncnc2cc([N+](=O)[O-])ccc12 |  | 11.1 µM (inactive) |
| Cn1c(=O)n(CCc2ccccc2)c(=O)c2c1nc1n2CCCN1Cc1ccccc1 |  | > 79 µM (inactive) |
| COc1cccc(Nc2nc3ccccc3n3nnnc23)c1 |  | > 79 µM (inactive) |
| O=C(Nc1cccc(/C=C/c2ccccn2)c1)c1ccc(-n2cncn2)cc1 | 5.50 |  |
| CCOc1cc(/C=C/c2ccc3cccc([N+](=O)[O-])c3n2)ccc1OCC(=O)N(C)C | 5.04 |  |
| CCn1c(=O)cc(OCC(=O)Nc2ccccc2C#N)c2ccccc21 |  | 11.9 µM (inactive) |
| CCN(CC)C(=O)c1[nH]cnc1C(=O)NCC(=O)OCc1ccccc1 | 5.16 |  |

| Compound | pIC50 | IC50 |
| --- | --- | --- |
| COC(=O)c1cccc(S(=O)(=O)N(Cc2ccco2)Cc2cc3cc(OC)ccc3[nH]c2=O)c1 |  | 42.2 µM (inactive) |
| O=C(N/N=C/c1ccncc1)c1ccc(COc2cccc3cccnc23)cc1 |  | 25.3 µM (inactive) |
| Cc1ccc(-n2cc(-c3ccccc3)c3c(N4CCOCC4)ncnc32)cc1 | 5.22 |  |
| N#Cc1c(-c2ccco2)cc(-c2ccccn2)nc1N |  | 28.5 µM (inactive) |
| COc1ccc(-c2cc(NC=O)c3ncc(-c4cccc(C(C)=O)c4)n3c2)cc1 |  | > 79 µM (inactive) |
| CCCCn1nc(NC(=O)c2cccs2)c2cc3cc(OC)ccc3nc21 | 5.44 |  |
| Brc1cc2c(cc1/C=N/Nc1nc(N3CCCC3)nc(N3CCOCC3)n1)OCO2 | 5.08 |  |
| CCCCCCn1c(C)nc2c(c1=O)c1nc3ccccc3nc1n2/N=C/c1ccco1 | 5.31 |  |
| COc1ccc(-c2csc(NC(=O)c3ccc(OCC(=O)N4CCOCC4)c(OC)c3)n2)cc1OC | 5.61 |  |
| CC(=O)Nc1cccc(-c2cc(NC=O)c3ncc(-c4cccc(C(C)=O)c4)n3c2)c1 |  | 22.1 µM (inactive) |
| CN1CCc2nc3ccccc3c(C(=O)OCC(=O)N(CCC#N)c3ccccc3)c2C1 |  | 22.7 µM (inactive) |
| COc1ccc(-c2oc3c(OC)c(OC)c(OC)c(O)c3c(=O)c2OC)cc1OC |  | 12.1 µM (inactive) |
| CCOC(=O)C1=C(C)N=c2s/c(=C\c3ccncc3)c(=O)n2C1c1ccc2c(c1)OCO2 (centres undefined) | 5.08 |  |
| COc1cccc2cc(-c3cc(=O)oc4ccc(OCC(C)=O)cc34)oc12 | 5.49 |  |
| COC(=O)c1cccc(Nc2nc(-c3cccnc3)nc3ccccc23)c1 | 5.15 |  |
| COc1ccc(NC(=O)c2cc3c(=O)n(C)c4ccccc4c3n2C)cc1OC | 5.49 |  |
| CCOc1cccc(-c2nn3c(-c4ccccn4)nnc3s2)c1 | 5.18 |  |
| O=C(c1ccco1)N1CCN(C(=O)c2cc(-c3ccncc3)nc3ccc(Br)cc23)CC1 |  | 13.8 µM (inactive) |
| CC(=O)c1ccc(-c2cnc3c(NC=O)cc(-c4cccc(NS(C)(=O)=O)c4)cn23)cc1 | 5.09 |  |
| CC(=O)Nc1cccc(-c2cc(NC(C)=O)c3ncc(-c4cccc(C(C)=O)c4)n3c2)c1 |  | 38.4 µM (inactive) |
| Cc1ccccc1NP(=O)(Oc1ccccc1F)Oc1ccccc1F |  | > 79 µM (inactive) |
| CC1(c2ccccc2)NC(=O)N(CC(=O)Nc2cccc(/C=C/c3ccccn3)c2)C1=O (centres undefined) | 5.01 |  |
